Test results published in ChEMBL document CHEMBL1201862, “PubChem BioAssay data set” (2004).
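Cells were grown in 96-well plates and exposed to each compound for 48 hours at five concentrations; endpoints were interpolated linearly between bracketing concentrations, or set to the highest concentration if not reached. GI50 = concentration required for 50% inhibition of growth.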 Activity calls are given as the source filed them. No stated cut-off is given here; in the data, active = GI50 up to about 1.1 µM and inactive = higher.

How the values were obtained:
Assay in all cases: DTP human tumour cell line panel, 48 h
IGROV-1 = system: IGROV-1
SK-MEL-2 = system: SK-MEL-2
A549 = system: A549
KM12 = system: KM12
786-0 = system: 786-0
MDA-N = system: MDA-N
EKVX = system: EKVX
LOX IMVI = system: LOX IMVI
T47D = system: T47D
RPMI-8226 = system: RPMI-8226
OVCAR-3 = system: OVCAR-3
HCC 2998 = system: HCC 2998
OVCAR-8 = system: OVCAR-8
NCI-H226 = system: NCI-H226
SK-MEL-28 = system: SK-MEL-28
BT-549 = system: BT-549
CAKI-1 = system: CAKI-1
SN12C = system: SN12C
UACC-257 = system: UACC-257

Row | Structure (SMILES) | GI50 (IGROV-1) | GI50 (SK-MEL-2) | GI50 (A549) | GI50 (KM12) | GI50 (786-0) | GI50 (MDA-N) | GI50 (EKVX) | GI50 (LOX IMVI) | GI50 (T47D) | GI50 (RPMI-8226) | GI50 (OVCAR-3) | GI50 (HCC 2998) | GI50 (OVCAR-8) | GI50 (NCI-H226) | GI50 (SK-MEL-28) | GI50 (BT-549) | GI50 (CAKI-1) | GI50 (SN12C) | GI50 (UACC-257)
1 | C#CCSc1nc(-c2ccco2)n[nH]1 | 48.5 µM (inactive) | > 100 µM (inactive) | > 100 µM (inactive) | > 100 µM (inactive) | > 100 µM (inactive) | > 100 µM (inactive) | > 100 µM (inactive) | > 100 µM (inactive) | > 100 µM (inactive) | > 100 µM (inactive) | > 100 µM (inactive) | > 100 µM (inactive) | > 100 µM (inactive) | > 100 µM (inactive) | > 100 µM (inactive) | > 100 µM (inactive) | > 100 µM (inactive) | > 100 µM (inactive) | > 100 µM (inactive)
2 | Cc1cc(N(CCCl)CCCl)ccc1/C=N/NC(=O)Cc1cc(=O)oc2cc(O)ccc12 | 15.8 µM (inactive) | 32.3 µM (inactive) | 12.2 µM (inactive) | 16.6 µM (inactive) | 18.8 µM (inactive) | 12.7 µM (inactive) | 20.4 µM (inactive) | 12.6 µM (inactive) | 6.85 µM (inactive) | 16 µM (inactive) | 21.3 µM (inactive) | 28.2 µM (inactive) | 19.5 µM (inactive) | 15.7 µM (inactive) | 12.6 µM (inactive) | 13.4 µM (inactive) | 6.4 µM (inactive) | 16 µM (inactive) | 20.8 µM (inactive)
3 | CC1OC(OC2C(O)COC(OC3C(C)OC(OC4C(OC(=O)[C@]56CCC(C)(C)C[C@@H]5C5=CCC7[C@@]8(C)C[C@H](O)[C@H](OC9OC(CO)C(O)C(OC%10OC(CO)C(O)C(O)C%10O)C9O)[C@@](C)(CO)[C@@H]8CC[C@@]7(C)[C@]5(C)CC6)OCC(O)C4O)C(O)C3O)C2O)C(O)C(O)C1O (stereo partly specified) | – | 19.8 µM (inactive) | 14.4 µM (inactive) | 18.8 µM (inactive) | 16.1 µM (inactive) | 17.1 µM (inactive) | 12.8 µM (inactive) | 18 µM (inactive) | 16 µM (inactive) | 18.3 µM (inactive) | 14.9 µM (inactive) | 16.2 µM (inactive) | 17 µM (inactive) | 23.1 µM (inactive) | 8.75 µM (inactive) | 22.4 µM (inactive) | 3.19 µM (inactive) | 10.6 µM (inactive) | 18.3 µM (inactive)
4 | O=C(O)CC(NC(=O)/C(=C/c1ccccc1)NC(=O)c1ccccc1)C(=O)O (stereo unspecified) | > 100 µM (inactive) | > 100 µM (inactive) | > 100 µM (inactive) | > 100 µM (inactive) | > 100 µM (inactive) | > 100 µM (inactive) | > 100 µM (inactive) | > 100 µM (inactive) | > 100 µM (inactive) | > 100 µM (inactive) | > 100 µM (inactive) | > 100 µM (inactive) | > 100 µM (inactive) | > 100 µM (inactive) | > 100 µM (inactive) | > 100 µM (inactive) | > 100 µM (inactive) | > 100 µM (inactive) | > 100 µM (inactive)
5 | C[C@]12CC[C@H]3[C@@H](CCC4=CC(=O)CC[C@@]43C)[C@@H]1CC[C@@H]2C(=O)Nc1ccc([N+](=O)[O-])c(C(F)(F)F)c1 | 22.8 µM (inactive) | 17.5 µM (inactive) | 17.9 µM (inactive) | 16 µM (inactive) | 16.6 µM (inactive) | > 10 µM (inactive) | 13.4 µM (inactive) | 15.8 µM (inactive) | 15.6 µM (inactive) | 56.1 µM (inactive) | 22.8 µM (inactive) | 12.9 µM (inactive) | 26.4 µM (inactive) | 21.2 µM (inactive) | 20.7 µM (inactive) | 19.4 µM (inactive) | 18.7 µM (inactive) | 23.4 µM (inactive) | > 10 µM (inactive)
6 | S=C1N=C(Cl)/C(=C\c2ccccc2)N1 | > 100 µM (inactive) | > 100 µM (inactive) | > 83.6 µM (inactive) | > 87.7 µM (inactive) | > 100 µM (inactive) | > 100 µM (inactive) | > 100 µM (inactive) | > 100 µM (inactive) | > 100 µM (inactive) | > 100 µM (inactive) | > 100 µM (inactive) | 1.06 µM (active) | > 100 µM (inactive) | > 100 µM (inactive) | > 100 µM (inactive) | > 100 µM (inactive) | > 100 µM (inactive) | > 100 µM (inactive) | > 100 µM (inactive)
7 | NS(=O)(=O)c1nnc(NS(=O)(=O)c2ccc(F)cc2)s1 | – | > 100 µM (inactive) | > 100 µM (inactive) | > 100 µM (inactive) | > 100 µM (inactive) | > 100 µM (inactive) | > 100 µM (inactive) | > 100 µM (inactive) | > 100 µM (inactive) | > 100 µM (inactive) | > 100 µM (inactive) | > 100 µM (inactive) | > 100 µM (inactive) | > 100 µM (inactive) | > 100 µM (inactive) | > 100 µM (inactive) | > 100 µM (inactive) | > 100 µM (inactive) | > 100 µM (inactive)
8 | COC(=O)C(CNC(=O)/C=C/c1ccc(OC(C)=O)c(OC(C)=O)c1)NC(=O)/C=C/c1ccc(OC(C)=O)c(OC(C)=O)c1 (stereo unspecified) | > 100 µM (inactive) | > 100 µM (inactive) | > 100 µM (inactive) | > 100 µM (inactive) | > 100 µM (inactive) | > 100 µM (inactive) | > 100 µM (inactive) | > 100 µM (inactive) | 77.3 µM (inactive) | > 100 µM (inactive) | > 100 µM (inactive) | > 100 µM (inactive) | > 100 µM (inactive) | > 100 µM (inactive) | > 100 µM (inactive) | > 100 µM (inactive) | > 100 µM (inactive) | > 100 µM (inactive) | > 100 µM (inactive)
9 | CC(=O)N1C(c2[nH]c3ccccc3c2-c2ccccc2)CCN1c1ccccc1 (stereo unspecified) | > 10 µM (inactive) | > 10 µM (inactive) | > 10 µM (inactive) | – | > 10 µM (inactive) | > 10 µM (inactive) | > 10 µM (inactive) | > 10 µM (inactive) | > 10 µM (inactive) | > 10 µM (inactive) | > 10 µM (inactive) | > 10 µM (inactive) | > 10 µM (inactive) | > 10 µM (inactive) | > 10 µM (inactive) | > 10 µM (inactive) | > 10 µM (inactive) | > 10 µM (inactive) | > 10 µM (inactive)
10 | NC(=O)c1nnc2c(F)cccc2c1N | > 100 µM (inactive) | > 100 µM (inactive) | 84.5 µM (inactive) | > 100 µM (inactive) | > 100 µM (inactive) | 66.5 µM (inactive) | > 100 µM (inactive) | 52 µM (inactive) | > 100 µM (inactive) | > 100 µM (inactive) | > 100 µM (inactive) | 93.1 µM (inactive) | > 100 µM (inactive) | 46.6 µM (inactive) | – | 58.9 µM (inactive) | > 100 µM (inactive) | > 100 µM (inactive) | > 100 µM (inactive)
